Measurements from PubChem BioAssay (NCI).
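Dose response: 5 concentrations. Exposure: 48 h. Format: 96-well plates. Endpoint: linear interpolation; highest concentration if not reached. TGI is the concentration that stops growth completely.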

Columns and labels:
Assay in all cases: NCI tumour cell line growth inhibition, 48 h
786-0 renal = test system: 786-0 renal
A498 renal = test system: A498 renal
A549 NSCLC = test system: A549 NSCLC
ACHN renal = test system: ACHN renal
BT-549 breast = test system: BT-549 breast
CAKI-1 renal = test system: CAKI-1 renal
CCRF-CEM leukemia = test system: CCRF-CEM leukemia
COLO 205 colon = test system: COLO 205 colon
DU-145 prostate = test system: DU-145 prostate
EKVX NSCLC = test system: EKVX NSCLC
HCC-2998 colon = test system: HCC-2998 colon
HCT-116 colon = test system: HCT-116 colon
HCT-15 colon = test system: HCT-15 colon
HL-60(TB) leukemia = test system: HL-60(TB) leukemia
HOP-62 NSCLC = test system: HOP-62 NSCLC
HOP-92 NSCLC = test system: HOP-92 NSCLC
HS 578T breast = test system: HS 578T breast
HT29 colon = test system: HT29 colon
IGROV1 ovarian = test system: IGROV1 ovarian
K-562 leukemia = test system: K-562 leukemia
KM12 colon = test system: KM12 colon
LOX IMVI melanoma = test system: LOX IMVI melanoma
MALME-3M melanoma = test system: MALME-3M melanoma
MCF7 breast = test system: MCF7 breast
MDA-MB-231 breast = test system: MDA-MB-231 breast
MDA-MB-435 = test system: MDA-MB-435
MDA-N = test system: MDA-N
MOLT-4 leukemia = test system: MOLT-4 leukemia
NCI-H226 lung = test system: NCI-H226 lung
NCI-H23 lung = test system: NCI-H23 lung
NCI-H460 lung = test system: NCI-H460 lung
NCI-H522 lung = test system: NCI-H522 lung
NCI/ADR-RES ovarian = test system: NCI/ADR-RES ovarian
OVCAR-3 ovarian = test system: OVCAR-3 ovarian
OVCAR-4 ovarian = test system: OVCAR-4 ovarian
OVCAR-5 ovarian = test system: OVCAR-5 ovarian
OVCAR-8 ovarian = test system: OVCAR-8 ovarian
PC-3 prostate = test system: PC-3 prostate
RPMI-8226 leukemia = test system: RPMI-8226 leukemia
RXF 393 renal = test system: RXF 393 renal
SF-268 CNS = test system: SF-268 CNS
SF-295 CNS = test system: SF-295 CNS
SF-539 CNS = test system: SF-539 CNS
SK-MEL-2 melanoma = test system: SK-MEL-2 melanoma
SK-MEL-28 melanoma = test system: SK-MEL-28 melanoma
SK-MEL-5 melanoma = test system: SK-MEL-5 melanoma
SK-OV-3 ovarian = test system: SK-OV-3 ovarian
SN12C renal = test system: SN12C renal
SNB-19 CNS = test system: SNB-19 CNS
SNB-75 CNS = test system: SNB-75 CNS
SR leukemia = test system: SR leukemia
SW-620 colon = test system: SW-620 colon
T-47D breast = test system: T-47D breast
TK-10 renal = test system: TK-10 renal
U251 CNS = test system: U251 CNS
UACC-257 melanoma = test system: UACC-257 melanoma
UACC-62 melanoma = test system: UACC-62 melanoma
UO-31 renal = test system: UO-31 renal
M14 melanoma = test system: M14 melanoma

Measured: TGI

Nc1nc(Cl)cc(NCC2(CO)CC(O)C2)n1 (stereo unspecified)
> 100 µM: 786-0 renal | A498 renal | A549 NSCLC | ACHN renal | BT-549 breast | CAKI-1 renal | CCRF-CEM leukemia | COLO 205 colon | DU-145 prostate | EKVX NSCLC | HCC-2998 colon | HCT-116 colon | HCT-15 colon | HL-60(TB) leukemia | HOP-62 NSCLC | HOP-92 NSCLC | HS 578T breast | HT29 colon | IGROV1 ovarian | K-562 leukemia | KM12 colon | LOX IMVI melanoma | MALME-3M melanoma | MCF7 breast | MDA-MB-231 breast | MDA-MB-435 | MDA-N | MOLT-4 leukemia | NCI-H226 lung | NCI-H23 lung | NCI-H460 lung | NCI-H522 lung | NCI/ADR-RES ovarian | OVCAR-3 ovarian | OVCAR-4 ovarian | OVCAR-5 ovarian | OVCAR-8 ovarian | PC-3 prostate | RPMI-8226 leukemia | RXF 393 renal | SF-268 CNS | SF-295 CNS | SF-539 CNS | SK-MEL-2 melanoma | SK-MEL-28 melanoma | SK-MEL-5 melanoma | SK-OV-3 ovarian | SN12C renal | SNB-19 CNS | SNB-75 CNS | SR leukemia | SW-620 colon | T-47D breast | TK-10 renal | U251 CNS | UACC-257 melanoma | UACC-62 melanoma | UO-31 renal

CSc1nc2ccccc2c(=O)n1-c1cccc(C)c1
72.5 µM: MDA-N
35.1 µM: HCC-2998 colon
66.2 µM: SK-MEL-5 melanoma
9.77 µM: HL-60(TB) leukemia
92 µM: A498 renal
98.2 µM: MOLT-4 leukemia
> 100 µM: 786-0 renal | A549 NSCLC | ACHN renal | BT-549 breast | CAKI-1 renal | CCRF-CEM leukemia | COLO 205 colon | DU-145 prostate | EKVX NSCLC | HCT-116 colon | HCT-15 colon | HOP-62 NSCLC | HOP-92 NSCLC | HS 578T breast | HT29 colon | IGROV1 ovarian | K-562 leukemia | KM12 colon | LOX IMVI melanoma | M14 melanoma | MALME-3M melanoma | MCF7 breast | MDA-MB-231 breast | MDA-MB-435 | NCI-H226 lung | NCI-H23 lung | NCI-H460 lung | NCI-H522 lung | NCI/ADR-RES ovarian | OVCAR-3 ovarian | OVCAR-4 ovarian | OVCAR-5 ovarian | OVCAR-8 ovarian | PC-3 prostate | RPMI-8226 leukemia | RXF 393 renal | SF-268 CNS | SF-295 CNS | SF-539 CNS | SK-MEL-2 melanoma | SK-MEL-28 melanoma | SK-OV-3 ovarian | SN12C renal | SNB-19 CNS | SNB-75 CNS | SW-620 colon | T-47D breast | TK-10 renal | U251 CNS | UACC-257 melanoma | UACC-62 melanoma
49.7 µM: SR leukemia
